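Where inhibition never reached the appropriate level, the endpoint shown equals the highest concentration tested. Otherwise, values were interpolated linearly from a five-concentration, 48-hour dose response in 96-well plates. The concentration for 50% growth inhibition is given as GI50.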 Active and inactive are the calls of the source. Rule as the data show it: active = GI50 up to about 1.1 µM and inactive = higher.
Assays:
Assay in all cases: NCI tumour cell line growth inhibition, 48 h
[1] = system: BT-549
[2] = system: UACC-257
[3] = system: SK-MEL-2
[4] = system: NCI-H522
[5] = system: KM12
[6] = system: A549
[7] = system: HCT-15
[8] = system: HT-29
[9] = system: OVCAR-8
[10] = system: U-251
[11] = system: SW-620
[12] = system: SK-MEL-5
[13] = system: HCC 2998
[14] = system: LOX IMVI
[15] = system: SNB-75
[16] = system: EKVX
[17] = system: RXF 393
[18] = system: OVCAR-3
[19] = system: SK-OV-3

Measured: GI50

Nc1ccc(N(S(=O)(=O)c2ccccc2)S(=O)(=O)c2ccccc2)c(Cl)c1
inactive: [1] 56.5 µM | [2] 34.3 µM | [3] 31.3 µM | [4] 33.9 µM | [5] 24.2 µM | [6] 50.5 µM | [8] 37.8 µM | [9] 70.8 µM | [10] 39.3 µM | [11] 42.9 µM | [12] 20.1 µM | [13] 18.5 µM | [14] 68.1 µM | [15] 42.2 µM | [16] 64.3 µM | [17] > 100 µM
55.7 µM: [7]

CC(=O)OCC1OC(n2c(S)nc(-c3ccccc3)c(C#N)c2=O)C(OC(C)=O)C(OC(C)=O)C1OC(C)=O (configuration not stated)
> 100 µM: [7]
inactive: [1] > 100 µM | [2] > 100 µM | [3] > 100 µM | [4] > 100 µM | [5] > 100 µM | [6] > 100 µM | [8] > 100 µM | [9] > 100 µM | [18] > 100 µM | [10] > 100 µM | [11] > 100 µM | [12] > 100 µM | [13] > 100 µM | [14] > 100 µM | [15] 98.9 µM | [16] > 100 µM | [17] > 100 µM | [19] > 100 µM

COc1c(-c2nc3ccc(N4CCN(C)CC4)nc3[nH]2)cc(OC)c2[nH]c(COC(C)=O)nc12
46 µM: [7]
inactive: [1] 56.9 µM | [2] 24.8 µM | [3] 19.5 µM | [4] 37.1 µM | [5] 23.9 µM | [6] 39.5 µM | [8] 20.3 µM | [9] 50.4 µM | [10] 13.8 µM | [11] 27.9 µM | [12] 16.2 µM | [13] 15.2 µM | [14] 25.9 µM | [15] 24.4 µM | [16] 54.2 µM | [17] 21.8 µM | [19] 14.5 µM

O=C1/C(=C/c2cccnc2)C(n2cccc2)c2c(Br)sc(Br)c21 (configuration not stated)
active: [13] 0.916 µM
inactive: [1] 9.57 µM | [2] 1.72 µM | [3] 2.26 µM | [4] 6.07 µM | [5] 3.43 µM | [6] 15.6 µM | [8] 2.79 µM | [9] 2.1 µM | [18] 1.92 µM | [10] 1.7 µM | [11] 2.32 µM | [12] 7.18 µM | [14] 1.93 µM | [15] 2 µM | [16] 2 µM | [17] 2.4 µM | [19] 15.8 µM
2.02 µM: [7]

COC(=O)C1=C(O)c2ccc(Cl)cc2S(=O)(=O)N1C
45.1 µM: [7]
inactive: [1] > 100 µM | [2] 93.3 µM | [3] > 100 µM | [4] 34.8 µM | [5] > 100 µM | [6] 44.4 µM | [8] > 100 µM | [10] 81.3 µM | [11] 80.2 µM | [12] 97.1 µM | [13] > 100 µM | [14] > 100 µM | [16] 42.2 µM | [17] > 100 µM | [19] > 100 µM

CCN(CC)C(=O)N[C@@H](Cc1ccccc1)C(=O)NC
> 100 µM: [7]
inactive: [1] > 100 µM | [3] > 100 µM | [4] > 100 µM | [5] > 100 µM | [6] > 100 µM | [8] > 100 µM | [9] > 100 µM | [18] > 100 µM | [10] > 100 µM | [11] > 100 µM | [12] > 100 µM | [13] > 100 µM | [14] > 100 µM | [15] > 100 µM | [16] > 100 µM | [17] > 100 µM | [19] > 100 µM

CN(C)CCOc1ccc(-c2c(Oc3ccc(Cl)cc3)c(=O)oc3ccccc23)cc1
inactive: [1] 15 µM | [2] 5.13 µM | [3] 7.59 µM | [4] 8.75 µM | [5] 9.57 µM | [6] 4.97 µM | [8] > 20.5 µM | [9] > 24.5 µM | [18] 12.4 µM | [10] 3.64 µM | [11] > 23.5 µM | [12] 2.01 µM | [13] 3.15 µM | [14] 6.98 µM | [15] 6.56 µM | [16] 12.3 µM | [17] 8.09 µM | [19] 10.4 µM
6.95 µM: [7]

CCC(=O)NC(NNS(=O)(=O)c1ccc(C)cc1)(C(F)(F)F)C(F)(F)F
inactive: [1] 29.7 µM | [2] 52 µM | [3] > 100 µM | [4] 30.7 µM | [5] 54.1 µM | [6] 35.7 µM | [9] 44.9 µM | [18] > 10 µM | [10] > 10 µM | [11] 33.7 µM | [12] 50 µM | [13] > 10 µM | [14] > 100 µM | [15] 51.9 µM | [16] > 100 µM | [17] 23.2 µM | [19] 64.3 µM
32.1 µM: [7]

O=C(Nc1ccccc1)OC1OC(COC(=O)c2ccccc2)C(OC(=O)c2ccccc2)C1OS(=O)(=O)c1ccc([N+](=O)[O-])cc1 (configuration not stated)
> 100 µM: [7]
inactive: [1] > 100 µM | [2] > 100 µM | [3] > 100 µM | [4] 40.3 µM | [5] > 100 µM | [6] > 100 µM | [8] > 100 µM | [9] > 100 µM | [18] 74.6 µM | [10] > 100 µM | [11] > 100 µM | [12] > 100 µM | [13] > 100 µM | [14] > 100 µM | [16] 63.8 µM | [17] > 100 µM | [19] > 100 µM

CC1=CC(=O)/C(=C/N2CCNC2=S)C(=O)O1
inactive: [1] > 100 µM | [2] > 100 µM | [3] > 100 µM | [4] > 100 µM | [5] > 100 µM | [6] > 100 µM | [8] > 100 µM | [9] > 100 µM | [10] > 100 µM | [11] > 100 µM | [12] 97.3 µM | [13] > 100 µM | [14] > 100 µM | [15] 89.7 µM | [16] > 100 µM | [17] > 100 µM | [19] > 100 µM
> 100 µM: [7]

CCOC(=O)/C(C(C)=O)=C(\OC(C)=O)c1ccncc1C(=O)O
> 100 µM: [7]
inactive: [1] > 100 µM | [2] > 100 µM | [3] > 100 µM | [4] > 100 µM | [5] > 100 µM | [6] > 100 µM | [8] > 100 µM | [9] > 100 µM | [18] > 100 µM | [10] > 100 µM | [11] > 100 µM | [13] > 100 µM | [14] > 100 µM | [15] > 100 µM | [16] > 100 µM | [17] > 100 µM | [19] > 100 µM

COc1cccc(C=C(C#N)C#N)c1OC
inactive: [1] > 100 µM | [2] > 100 µM | [4] > 100 µM | [5] > 100 µM | [6] > 100 µM | [8] > 100 µM | [9] > 100 µM | [18] > 100 µM | [10] > 100 µM | [11] > 100 µM | [12] > 100 µM | [13] > 100 µM | [15] 43.2 µM | [16] > 100 µM | [17] > 100 µM | [19] 12.3 µM
> 100 µM: [7]

CCOC(=O)c1cc(-c2ccc([N+](=O)[O-])cc2)c([N+](=O)[O-])[nH]1
inactive: [1] 3.4 µM | [2] 1.6 µM | [3] 2.72 µM | [4] 3.33 µM | [5] 7.19 µM | [6] 2.88 µM | [8] 2.69 µM | [9] 4.24 µM | [18] 2.7 µM | [10] 3.46 µM | [13] 4.38 µM | [15] > 10 µM | [16] 2.51 µM | [17] 2.18 µM | [19] > 10 µM
2.9 µM: [7]

C=C1C(=O)O[C@H]2[C@H]1CC(=O)/C(C)=C/CC[C@@]1(C)O[C@@H]21
active: [1] 0.423 µM | [4] 0.256 µM | [18] 0.224 µM | [11] 0.324 µM | [12] 0.973 µM | [14] 0.354 µM | [17] 0.44 µM
inactive: [3] 3.03 µM | [5] 2.49 µM | [6] 12.7 µM | [8] 1.13 µM | [9] 2.01 µM | [10] 5 µM | [13] 2.4 µM | [15] 16.7 µM | [19] 12.9 µM
0.515 µM: [7]

COc1ccc(N2C(=O)/C(=C\c3cccc(Oc4ccccc4)c3)SC2c2ccccc2)cc1 (configuration not stated)
inactive: [1] 25.3 µM | [2] 38.7 µM | [3] > 100 µM | [4] 8.24 µM | [5] 45 µM | [6] > 100 µM | [9] 28.6 µM | [18] 33.9 µM | [10] 26.1 µM | [11] 32.9 µM | [12] 27.9 µM | [13] > 100 µM | [14] 21.9 µM | [16] > 100 µM | [17] 8.59 µM | [19] 80.9 µM
> 100 µM: [7]

C=C1C(=O)C([Si](C)(C)C)=C2C=C(C)C3(CC3)C12C (configuration not stated)
35.8 µM: [7]
inactive: [1] 25.4 µM | [2] 17.9 µM | [3] 15.6 µM | [4] 14 µM | [5] 38.3 µM | [6] 24.2 µM | [8] 18.2 µM | [9] 57.4 µM | [18] 29.2 µM | [10] 28.2 µM | [11] 59.7 µM | [12] 19.4 µM | [13] 38.9 µM | [14] 22.6 µM | [16] 4.69 µM | [17] 15.3 µM

Source: ChEMBL document CHEMBL1201862, “PubChem BioAssay data set” (2004)
